# Assays:
# [1] = tested on: CD34^pos stem cell subpopulation; experiment: Step 1 proliferative culture of fresh bone marrow: numeric expansion; format: cell-based, mouse; conditions: for superimposed proliferative impacts: added to Step 1 culture; for effectiveness as alternative Step 1 factor: rhIL6 100 ng/ml instead of mIL6, rSCF instead of mSCF
# Protocol: FIG. 6 is a chart showing numeric expansion resulting from the exposure of bone marrow (BM) suspensions to various factors. BM freshly harvested from C57BL/6 mice was cultured for 6 days in the specific factors, then harvested and counted. Each bar represents 3-11 determinations±s.d., each performed in synchronous comparison to at least five other groups. […] Synergistic expansions reflected a 35-80 fold selective outgrowth of the CD34^pos subpopulation (see FIG. 10);
# FIG. 10 is a histogram showing gross numeric expansion of fresh bone marrow (BM) reflective of selective outgrowth of the CD34^pos subpopulation. Freshly prepared mouse BM cell suspensions were stained with FITC-anti-CD34 mAb to enable isolation of CD34^pos and CD34^neg subpopulations by a FACSAria cell sorter. CD34^pos cells initially represented 10.8±7% of the total BM cells. The following groups were then cultured for 6 days in 75 cm^2 flasks, either in Flt3L+SCF+IL6 (striped bars) or in Flt3L+IL6 (solid bars): “Unfractionated BM” (12-15 million per flask); “FACS sorted CD34^neg cells” (12-15 million per flask); “FACS sorted CD34^pos cells” (2-3 million per flask); or “FACS sorted, unirradiated CD34^pos cells plus irradiated (3,000 cGy) CD34^neg cells.” Labels above bars indicate fold numeric expansion during the 6 day culture. […] (Not done=group not done);
# We cultured fresh mouse BM in two stages, a 6-7 day proliferative phase (Step 1) and a 2-3 day post-proliferative phase (Step 2). […] FACS sorting experiments confirmed that such expansion represented a net 35-80 fold proliferation of the minor (<12%) CD34^pos stem cell subpopulation, with rapid dropout of the initially CD34^neg subpopulation (FIG. 10). Stem cell proliferation persisted well past day 7 if medium and factors were adequately replenished (not shown).
# Single cell suspensions were prepared from the femurs and tibias of healthy mice (Kuriyama, H. et al. Dev. Biol. (Basel) 116, 169-178 (2004)). Following RBC lysis by ammonium chloride, no further processing was performed. […] BM cells were normally cultured for 6-7 days, harvested, counted, and washed twice in PBS prior to initiation of Step 2 cultures.
# [2] = tested on: CD11c^pos cells and CD34^pos cells; experiment: In vivo cytokine treatment for six days: spleen and BM CD11c^pos and CD34^pos cells; parameters: species or system BALB/c mice; conditions: with rhFlt3-L 10 mcg i.p. daily
# From the text: FIGS. 15A-D are a series of graphs showing BALB/c mice treated for six days with either (A) nothing, (B) rhFlt3-L 10 mcg i.p. daily, (C) rhIL-6 mcg i.p. three times daily, and (D) rhFlt3-L 10 mcg i.p. daily plus rhIL-6 50 mcg i.p. three times daily. The next day mice were euthanized, spleens and BM harvested, and CD11c^pos cells (committed DC lineage) and CD34^pos cells (stem cells, potential DC precursors) quantified. Results are representative of four experiments. […] This is representative of four experiments;
# FIGS. 16A-D are a series of graphs showing BALB/c mice treated for six days with either (A) nothing, (B) rhFlt3-L 10 mcg i.p. daily, (C) rhFlt3-L 10 mcg i.p. daily plus rhIL-6 50 mcg i.p. three times daily, (D) rhFlt3-L 10 mcg i.p. daily plus rhIL-6 50 mcg i.p. once daily, (E) rhFlt3-L 10 mcg i.p. daily plus rhIL-6 10 mcg i.p. three times daily, and (F) rhFlt3-L 10 mcg i.p. daily plus rhIL-6 10 mcg i.p. once times daily. The next day mice were euthanized, spleens and BM harvested, and CD11c^pos cells (committed DC lineage) and CD34^pos cells (stem cells, potential DC precursors) quantified. Results are representative of three experiments.
# [3] = tested on: Flt3L+IL6 conditioned BM cells; experiment: Immunosuppressive factors added to Step 2 culture: DC1 polarization; format: cell-based, mouse; conditions: factor added in Step 2, TLR agonist-induced
# Protocol: FIG. 7A is a histogram showing Step 2 cultures (cells were re-plated in GMCSF and IL-4 at 0 hr, CpG+LPS added at 24 hr, FACS performed at 44 hr), except that listed immunosuppressive factors were added at 0 hr, 1 hr, 2 hr, or 4 hr of Step 2 culture, and supernatants analyzed by ELISA in triplicate for IL-12 p70 content at 44 hr of Step 2 culture. Error bars indicate s.d. This is representative of three experiments;
# We investigated whether Flt3L+IL6 proliferative conditioning conferred uniform responsiveness to DC1 polarization stimuli even in the presence of putative immunosuppressive factors. We added IL10, TGFβ1 VEGF, or PGE2 at doses which equaled and exceeded those reported to inhibit the maturation of other DC preparations (Kao, J Y et al. J. Immunol. 170, 3806-3811 (2003); Kobie, J J et al. Cancer Res. 63, 1860-1864 (2003); Gabrilovich, D. et al. Blood 92, 4150-4166 (1998); Dikov, M M et al. J. Immunol. 174, 215-222 (2005); Shurin, M R et al. Int. J. Cancer 101, 61-68 (2002); Yang, A S et al. Cancer Res. 63, 2150-2157 (2003); Kalinski, P. et al. J. Immunol. 161, 2804-2809 (1998)).
# (§1) Step 2 was initiated (0 hr) in CM, rmGMCSF and optionally rmIL4. Step 2 cultures were performed in 24 well cluster plates, 4 million BM cells per well in 2 ml CM. DC1 polarization stimuli such as CpG (ODN 1826, 5 μM) and LPS 50 ng/ml were added between 18-24 hrs, and cells harvested at 40-44 hrs for analyses. When included, immunosuppressive agents rmIL10, rmVEGF, rhTGFβ1 or PGE2 were added between 0 and 24 hrs of Step 2 culture at doses specified in Results. Alternatively, particulate tumor cells, either viable unirradiated, viable irradiated (10,000 cGy), or killed freeze-thawed lysate (Cohen, P A et al. Cancer Res. 54, 1055-1058 (1994)), were added to Step 2 BM cells. Viable tumor cells were sometimes labelled with CFSE (Molecular Probes, Eugene, Oreg.) to allow their identification and exclusion during subsequent FACS analyses (Peng, L. et al. J. Immunol. 169, 4811-4821 (2002)).
# L-selectin^low T cells = experiment: T cell co-cultures with variously conditioned DCs; format: cell-based, mouse; conditions: DCs from other conditioning treatments
# Protocol: Step 2 DC cultures were performed in rGMCSF and rIL-4 with irradiated MCA-203 cells added at 24 hr and CpG+LPS added at 44 hr. Four hours later, DCs were harvested for co-culture with L-selectin^low T cells freshly harvested from MCA-203 tumor-bearing mice. T cells were co-cultured with DCs at an 8:1 ratio or were activated with immobilized anti-CD3. […] Cultures shown also received exogenous IL-2, IL-7 and IL-15.
# Cultures shown also received exogenous IL2, IL7 and IL15.
# Conditioned DC precursors were transferred to Step 2 culture, exposed to viable irradiated tumor, optionally further activated with CpG+LPS, then co-cultured with tolerized TDLN T cells from mice bearing the relevant tumor.
# Prior to harvest of T cells from tumor-bearing mice, DCs were prepared under various Step 1 conditions in CM; Step 2 was performed in 1% non heat-deactivated mouse serum instead of FCS (CM-MS), during which BM cultures were exposed to viable irradiated tumor cells, then CpG+LPS as denoted in Results. On the day of DC harvest, T cells were freshly harvested from the tumor-draining lymph nodes of mice bearing 12 day tumors. The L-selectin^low (tolerized pre-effector) fraction of T cells was isolated by negative selection as described previously (Peng, L. et al. J. Immunol. 165, 5738-5749 (2000); Wang, L. et al. J. Translational Med. 2, 41 (2004)), and cultured in CM-MS with immobilized anti-CD3 (Peng, L. et al. J. Immunol. 165, 5738-5749 (2000); Wang, L. et al. J. Translational Med. 2, 41 (2004)) or variously conditioned DCs. Beginning on day 2 of T cell culture, some groups also received rhIL2 (24 I.U./m1), or rhIL2, rhIL7 (50 ng/ml) and rhIL15 (5 ng/ml). T cells were harvested for assays and adoptive therapy after 12 days of culture.
# conditioned BM cells = experiment: Tumor contact during Step 2 culture: DC maturation and IL12 production; format: cell-based, mouse
# Protocol: Because DC ingestion of cellular material can induce tolerogenic DCs (Bonifaz, L. et al. J. Exp. Med. 196, 1627-1638 (2002)), we tested the impact of exposing DCs to large volumes of tumor at 16-24 hours of Step 2 culture in GMCSF, to determine tumor's impact on subsequent spontaneous maturation. To cluster plate wells each containing 4 million conditioned BM cells, we added either 4 million freeze-thawed (killed) tumor cells; 3 million irradiated (10,000 cGy), trypan-excluding tumor cells; or 2 million unirradiated, actively proliferating tumor cells. Given the much larger dimensions of viable tumor cells compared to the cultured BM cells, these represented voluminous tumor challenges.
# as §1
# BM cells = experiment: Step 2 culture: spontaneous DC maturation without exogenous maturation stimuli; format: cell-based, mouse; conditions: after Flt3L or Flt3L+IL6 conditioning
# From the text: DC differentiation typically arrests at the immature stage unless DCs are exposed to additional signals such as CD40 ligation, calcium ionophore or TLR agonists (Xu, S. et al. J. Immunol. 171, 2251-2261 (2003); Bonifaz, L. et al. J. Exp. Med. 196, 1627-1638 (2002); Napolitani, G. et al. Nat. Immunol. 6, 769-776 (2005); Czerniecki, B J et al. J. Immunol. 159, 3823-3837 (1997); Mailliard, R B et al. Cancer Res. 64, 5934-5937 (2004)). […] Instead, uniform upregulation of MHC Class II and CD11c ensued within hours of transfer from Flt3L+IL6 into GMCSF, followed by upregulation of CD40, co-stimulatory molecules and CCR7 between 48 and 72 hours of Step 2 culture.
# as §1
molecule,measurement,setting,value
fibronectin,superimposed proliferative impacts,[1],negligible superimposed proliferative impacts
rhIL6: recombinant human interleukin-6,effectiveness as alternative Step 1 factor,[1],also effective
same,10 mcg versus 50 mcg dosing,[2],as effective as 50 mcg dosing
same,thrice daily versus once daily administration,[2],more effective than once daily
"TGFI31: immunosuppressive factor, recombinant human TGFβ1","impact upon DC1 polarization (phenotypic maturation, IL12)",[3],paradoxically enhanced both phenotypic maturation and IL12 secretion
VEGF,"impact upon DC1 polarization (phenotypic maturation, IL12)",[3],negligible impacts
IL15,rescue of DC toxicity to T cells by exogenous cytokine,L-selectin^low T cells,could not be rescued
"CCCCC[C@H](O)/C=C/[C@H]1[C@H](O)CC(=O)[C@@H]1C/C=C\CCCC(=O)O [PGE2, prostaglandin E2, reference compound]","impact upon DC1 polarization (phenotypic maturation, IL12)",[3],substantially inhibited
"IFNγ: recombinant mouse interferon gamma (protein, UniProt P01580 23-155, looked up) Interferon gamma: HGTVIESLESLNNYFNSSGIDVEEKSLFLDIWRNWQKDGDMKILQSQIISFYLRLFEVLKDNQAISNNISVIESHLITTFFSNSKAKKDAFMSIAKFEVNNPQVQRQAFNELIRVVHQLLPESSLRKRKRSRC",IL12 production,conditioned BM cells; IFNγ treatment alone,Neither tumor nor IFNγ treatment alone induced IL12 production
same,IL12 (p70) production,"conditioned BM cells; tumor exposure combined with IFNγ, Flt3L+IL6 conditioned",could induce IL12 (p70) production
"thrombopoeitin: recombinant murine thrombopoeitin (protein, UniProt P40226 22-356, looked up) Thrombopoietin: SPVAPACDPRLLNKLLRDSHLLHSRLSQCPDVDPLSIPVLLPAVDFSLGEWKTQTEQSKAQDILGAVSLLLEGVMAARGQLEPSCLSSLLGQLSGQVRLLLGALQGLLGTQLPLQGRTTAHKDPNALFLSLQQLLRGKVRFLLLVEGPTLCVRRTLPTTAVPSSTSQLLTLNKFPNRTSGLLETNFSVTARTAGPGLLSRLQGFRVKITPGQLNQTSRSPVQISGYLNRTHGPVNGTHGLFAGTSLQTLEASDISPGAFNKGSLAFNLQGGLPPSPSLAPDGHTPFPPSPALPTTHGSPPQLHPLFPDPSTTMPNSTAPHPVTMYPHPRNLSQET",superimposed proliferative impacts,[1],negligible superimposed proliferative impacts
"IL10: immunosuppressive factor, recombinant mouse IL10 (protein, UniProt P18893 19-178, looked up) Interleukin-10: SRGQYSREDNNCTHFPVGQSHMLLELRTAFSQVKTFFQTKDQLDNILLTDSLMQDFKGYLGCQALSEMIQFYLVEVMPQAEKHGPEIKEHLNSLGEKLKTLRMRLRRCHRFLPCENKSKAVEQVKSDFNKLQDQGVYKAMNEFDIFINCIEAYMMIKMKS","impact upon DC1 polarization (phenotypic maturation, IL12)",[3],negligible impacts
"IL7 (protein, UniProt P13232 26-177, looked up) Interleukin-7: DCDIEGKDGKQYESVLMVSIDQLLDSMKEIGSNCLNNEFNFFKRHICDANKEGMFLFRAARKLRQFLKMNSTGDFDLHLLKVSEGTTILLNCTGQVKGRKPAALGEAQPTKSLEENKSLKEQKKLNDLCFLKRLLQEIKTCWNKILMGTKEH",rescue of DC toxicity to T cells by exogenous cytokine,L-selectin^low T cells,could not be rescued
"IL4: recombinant mouse IL4 (protein, UniProt P07750 21-140, looked up) Interleukin-4: HIHGCDKNHLREIIGILNEVTGEGTPCTEMDVPNVLTATKNTTESELVCRASKVLRIFYLKHGKTPCLKKNSSVLMELQRLFRAFRCLDSSISCTMNESKSTSLKDFLESLKSIMQMDYS",spontaneous DC maturation with exogenous IL4 in Step 2,BM cells,even more robust
"rSCF: recombinant stem cell factor, alternative to mSCF (protein, UniProt P20826 26-190, looked up) Soluble KIT ligand: KEICGNPVTDNVKDITKLVANLPNDYMITLNYVAGMDVLPSHCWLRDMVIQLSLSLTTLLDKFSNISEGLSNYSIIDKLGKIVDDLVLCMEENAPKNIKESPKRPETRSFTPEEFFSIFNRSIDAFKDFMVASDTSDCVLSSTLGPEKDSRVSVTKPFMLPPVAA",effectiveness as alternative Step 1 factor,[1],also effective

# — patent publication US8247227B2, “Dendritic cell precursors” (The Cleveland Clinic Foundation, priority 2006, dated 2012)
